Here are results for 27 compounds from patent publication US8497380B2, “Substituted acetophenones useful as PDE4 inhibitors” (Leo Pharma A/S, priority 2006, dated 2013).

The test system of the experiment is Human peripheral blood mononuclear cells (PBMC). As to the kind of experiment: TNFalfa-Release. It is filed as cell-based. To be noted: inhibition of TNF-a secretion, PBMC pre-incubated 30 minutes, stimulated 18 hours with lipopolysaccharide. As to the method:
Human peripheral blood mononuclear cells (PBMC) are Isolated from buffy coats. The blood is mixed with saline at a ratio of 1:1, and the PBMC is isolated by the use of Lymphoprep Tubes™ (Nycomed, Norway). The PBMC is suspended in RPMI1640 with 2% foetal calf serum (FCS), pen/strep and 2 mM L-glutamine at a concentration of 5×105 c/ml. The cells are pre-incubated for 30 minutes with the test compounds in 96 well tissue culture plates and stimulated for 18 hours with lipopolysaccharide 1 mg/ml (Sigma). The level of TNF-a is measured in the culture supernatant by enzyme immuno assays using primary and secondary biotinylated antibodies from R&D systems. Results are expressed as pIC50 values calculated from inhibition curves using as positive controls the secretion in LPS stimulated wells and as negative controls the secretion in unstimulated cells.
`CCCCOc1c(C(=O)Cc2c(Cl)cncc2Cl)ccc(OC)c1OC` [Compound 140, 1-(2-Butoxy-3,4-dimethoxy-phenyl)-2-(3,5-dichloro-pyridin-4-yl)-ethanone] had a half-maximal inhibitory concentration (IC50) of less than 1000 nM. Take `CCCNC(=O)COc1c(C(=O)Cc2ccncc2Br)ccc(OC)c1OC` [Compound 292, 2-{6-[2-(3-Bromo-pyridin-4-yl)-acetyl]-2,3-dimethoxy-phenoxy}-N-propyl-acetamide]: the IC50 is less than 1000 nM. As to `CCCNC(=O)COc1c(C(=O)Cc2ccnc3ccccc23)ccc(OC)c1OC` [Compound 290], the IC50 is less than 1000 nM. Regarding `COc1ccc(C(=O)Cc2c(Cl)cncc2Cl)c(OCC(=O)NCCO)c1OC` [Compound 220, 2-{6-[2-(3,5-Dichloro-pyridin-4-yl)-acetyl]-2,3-dimethoxy-phenoxy}-N-(2-hydroxy-ethyl)-acetamide], the half-maximal inhibitory concentration (IC50) was less than 1000 nM. Take `CCCNC(=O)COc1c(C(=O)Cc2ccncc2)ccc(OC)c1OC` [Compound 289, 2-(2,3-Dimethoxy-6-(2-pyridin-4-yl-acetyl)-phenoxy)-N-propyl-acetamide]: the IC50 is less than 1000 nM.

Turning to `COc1ccc(C(=O)Cc2c(Cl)cncc2Cl)c(OCc2cccc(C#N)c2)c1OC` [Compound 152, 3-{6-[2-(3,5-Dichloro-pyridin-4-yl)-acetyl]-2,3-dimethoxy-phenoxymethyl}-benzonitrile], the IC50 was less than 1000 nM. As for `COc1ccc(CCOc2c(C(=O)Cc3c(Cl)cncc3Cl)ccc(OC)c2OC)cc1OC` [Compound 131, 2-(3,5-Dichloro-pyridin-4-yl)-1-{2-[2-(3,4-dimethoxy-phenyl)-ethoxy]-3,4-dimethoxy-phenyl}-ethanone], the IC50 was less than 1000 nM. Compound `COc1cccc(CNC(=O)COc2c(C(=O)Cc3c(Cl)cncc3Cl)ccc(OC)c2OC)c1` [Compound 216, 2-{6-[2-(3,5-Dichloro-pyridin-4-yl)-acetyl]-2,3-dimethoxy-phenoxy}-N-(3-methoxy-benzyl)-acetamide] gave an IC50 of less than 1000 nM. The result for `COc1ccc(C(=O)Cc2c(Cl)cncc2Cl)c(OCC(=O)NCC2CCCCCC2)c1OC` [Compound 257, N-Cycloheptylmethyl-2-{6-[2-(3,5-dichloro-pyridin-4-yl)-acetyl]-2,3-dimethoxy-phenoxy}-acetamide] reads less than 1000 nM; that for `COc1ccc(C(=O)Cc2c(Cl)cncc2Cl)c(O)c1OC` [Compound 101, 2-(3,5-Dichloro-pyridin-4-yl)-1-(2-hydroxy-3,4-dimethoxy-phenyl)-ethanone], less than 1000 nM. The result for `COc1ccc(C(=O)Cc2c(Cl)cncc2Cl)c(OCC(=O)NCc2cccnc2)c1OC` [Compound 230, 2-{6-[2-(3,5-Dichloro-pyridin-4-yl)-acetyl]-2,3-dimethoxy-phenoxy}-N-pyridin-3-ylmethyl-acetamide] reads less than 1000 nM; that for `COc1ccc(C(=O)Cc2c(Cl)cncc2Cl)c(OCc2ccc(C)c(F)c2F)c1OC` [Compound 171, 2-(3,5-Dichloro-pyridin-4-yl)-1-(2-(2,3-difluoro-4-methyl-benzyloxy)-3,4-dimethoxy-phenyl)-ethanone], less than 1000 nM; that for `COc1ccc(C(=O)Cc2c(Cl)cncc2Cl)c(OCCCOCc2ccccc2)c1OC` [Compound 183, 1-[2-(3-Benzyloxy-propoxy)-3,4-dimethoxy-phenyl]-2-(3,5-dichloro-pyridin-4-yl)-ethanone], less than 1000 nM. Regarding `COc1ccc(CCOc2c(C(=O)Cc3c(Cl)cncc3Cl)ccc(OC)c2OC)cc1` [Compound 126, 2-(3,5-Dichloro-pyridin-4-yl)-1-{3,4-dimethoxy-2-[2-(4-methoxy-phenyl)-ethoxy]-phenyl}-ethanone], the IC50 is less than 1000 nM. `CCOc1c(OC)ccc(C(=O)Cc2c(Cl)cncc2Cl)c1OCC(=O)OCc1ccccc1` [Compound 265, {6-[2-(3,5-Dichloro-pyridin-4-yl)-acetyl]-2-ethoxy-3-methoxy-phenoxy}-acetic acid benzyl ester] showed an IC50 of less than 1000 nM.

For `COc1ccc(C(=O)Cc2c(Cl)c[n+]([O-])cc2Cl)c(OCC(=O)NCc2ccccc2)c1OC` [Compound 270, N-Benzyl-2-{6-[2-(3,5-dichloro-1-oxy-pyridin-4-yl)-acetyl]-2,3-dimethoxy-phenoxy}-acetamide], the IC50 is less than 1000 nM. In turn, `COc1ccc(C(=O)Cc2c(Cl)cncc2Cl)c(OCC(=O)NCCc2cccnc2)c1OC` [Compound 249, 2-{6-[2-(3,5-Dichloro-pyridin-4-yl)-acetyl]-2,3-dimethoxy-phenoxy}-14-(2-pyridin-3-yl-ethyl)-acetamide] had an IC50 of less than 1000 nM. As to `COc1ccc(C(=O)Cc2c(Cl)cncc2Cl)c(OCCc2ccc(S(C)(=O)=O)cc2)c1OC` [Compound 282, 2-(3,5-Dichloro-pyridin-4-yl)-1-{2-[2-(4-methanesulfonyl-phenyl)-ethoxy]-3,4-dimethoxy-phenyl}-ethanone], the IC50 was less than 1000 nM.

`COc1ccc(CNC(=O)COc2c(C(=O)Cc3c(Cl)cncc3Cl)ccc(OC)c2OC)cc1` [Compound 213, 2-{6-[2-(3,5-Dichloro-pyridin-4-yl)-acetyl]-2,3-dimethoxy-phenoxy}-N-(4-methoxy-benzyl)-acetamide] gave an IC50 of less than 1000 nM.

Compound `COc1ccc(C(=O)Cc2c(Cl)cncc2Cl)c(OCc2cccc(Cl)c2)c1OC` [Compound 144, 1-[2-(3-Chloro-benzyloxy)-3,4-dimethoxy-phenyl]-2-(3,5-dichloro-pyridin-4-yl)-ethanone] gave a half-inhibitory concentration (IC50) of less than 1000 nM. The result for `COc1ccc(C(=O)Cc2c(Cl)cncc2Cl)c(OCC(=O)N2CCCC2)c1OC` [Compound 202, 2-(3,5-Dichloro-pyridin-4-yl)-1-[3,4-dimethoxy-2-(2-oxo-2-pyrrolidin-1-yl-ethoxy)-phenyl]-ethanone] reads less than 1000 nM; that for `COc1ccc(C(=O)Cc2c(Cl)cncc2Cl)c(OCCC(C)C)c1OC` [Compound 135, 2-(3,5-Dichloro-pyridin-4-yl)-1-(3,4-dimethoxy-2-(3-methyl-butoxy)-phenyl)-ethanone], less than 1000 nM. Regarding `COc1ccc(C(=O)Cc2c(Cl)cncc2Cl)c(OCCc2ccc(F)cc2)c1OC` [Compound 129, 2-(3,5-Dichloro-pyridin-4-yl)-1-{2-[2-(4-fluoro-phenyl)-ethoxy]-3,4-dimethoxy-phenyl}-ethanone], the IC50 was less than 1000 nM. Compound `C=CCCOc1c(C(=O)Cc2c(Cl)cncc2Cl)ccc(OC)c1OC` [Compound 137, 1-(2-But-3-enyloxy-3,4-dimethoxy-phenyl)-2-(3,5-dichloro-pyridin-4-yl)-ethanone] showed an IC50 of less than 1000 nM. The compound `COc1ccc(C(=O)Cc2c(Cl)cncc2Cl)c(OCC(=O)NCC2CCCCC2)c1OC` [Compound 219, N-Cyclohexylmethyl-2-{6-[2-(3,5-dichloro-pyridin-4-yl)-acetyl]-2,3-dimethoxy-phenoxy}-acetamide] showed an IC50 of less than 1000 nM. `COc1ccc(C(=O)Cc2c(Cl)cncc2Cl)c(OCc2ccccc2F)c1OC` [Compound 161, 2-(3,5-Dichloro-pyridin-4-yl)-1-[2-(2-fluoro-benzyloxy)-3,4-dimethoxy-phenyl]-ethanone] had an IC50 of less than 1000 nM.

`COc1ccc(C(=O)Cc2c(Cl)cncc2Cl)c(OCC(=O)NCc2cccc(F)c2)c1OC` [Compound 238, 2-{6-[2-(3,5-Dichloro-pyridin-4-yl)-acetyl]-2,3-dimethoxy-phenoxy}-N-(3-fluoro-benzyl)-acetamide] showed a concentration for half-maximal inhibition (IC50) of less than 1000 nM.

A word on the IC50: it is the concentration that inhibits the measured activity by half.
